Molecular target: T1, Danio rerio TREK-1 (Danio rerio, UniProt F1QAI2)
T1 sequence (F1QAI2 1-426): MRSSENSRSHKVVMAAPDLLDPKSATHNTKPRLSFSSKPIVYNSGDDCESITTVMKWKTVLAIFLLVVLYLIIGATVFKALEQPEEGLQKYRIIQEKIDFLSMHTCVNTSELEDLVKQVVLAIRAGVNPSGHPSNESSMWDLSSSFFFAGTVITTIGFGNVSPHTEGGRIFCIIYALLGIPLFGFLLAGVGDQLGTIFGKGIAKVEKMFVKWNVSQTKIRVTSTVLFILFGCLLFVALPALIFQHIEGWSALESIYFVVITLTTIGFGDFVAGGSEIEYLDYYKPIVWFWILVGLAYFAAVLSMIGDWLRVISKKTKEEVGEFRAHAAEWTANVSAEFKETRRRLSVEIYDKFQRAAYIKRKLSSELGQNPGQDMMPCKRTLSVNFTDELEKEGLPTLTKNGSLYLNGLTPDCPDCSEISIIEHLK
Experiment: Patch recording of Danio rerio TREK-1 from cultured cells
Type: biochemical
Conditions: IC50, Danio rerio TREK-1, patches
Description: For patch clamp recording from cultured cells, drTREK-1 or hsTRAAK genes were cloned into a modified pCEH vector to generate C-terminally EGFP-tagged constructs. HEK293T were cultured in DMEM (Gibco, Thermo Fisher Scientific) with 10% FBS and 100 U ml−1 penicillin and 100 μg ml−1 streptomycin. Trypsinized cells were deposited on 12-mm glass coverslips in a six-well dish one to two days before transfection. For transfection, drTREK-1 or hsTRAAK plasmids were mixed with FuGENE 6 in OptiMEM at a 1:3 ratio with 1 μg DNA per well per construct and applied to cells in growth medium with antibiotics. Patching was conducted from 24 to 60 h post-transfection. Coverslips were placed in a perfusion chamber at room temperature in isotonic bath solution: 135 mM NaCl, 15 mM KCl, 1 mM CaCl2, 1 mM MgCl2, 10 mM HEPES, adjusted to a final pH of 7.5 with NaOH. Cells were chosen by a combination of the presence GFP fluorescence and cell morphology consistent with healthy interphase cells. […]
Patches were evaluated with voltage-step protocols to confirm TRAAK expression and minimal non-specific leak based on reversal potential. Currents were recorded using an Axopatch 200B amplifier (Molecular Devices) at a bandwidth of 1 kHz and digitized with an Digidata 1550B (Molecular Devices) at 100–500 kHz using pClamp10.7 software. […] Data were analyzed using Clampfit 10.7, Excel, and Graphpad Prism software. […]

C=C(C)[C@@H]1CCC(C)=C[C@H]1c1c(O)cc(CCCCC)cc1O [CBD, Cannabidiol]
IC50: 11.1 µM
